What is called MIC is the lowest concentration found to suppress growth. A higher MIC goes with a less susceptible organism.

Drawing on DBAASP, this text covers MIC for 6 compounds.

≈ marks a conversion by molar mass, not a printed value. Where “and” joins values, the source holds several entries; their conditions need not be identical. Equal values may be shown once.

Holding throughout (test): ≥ marks a high value that may be exact or a test limit, other limits are often not marked, values filed in µg/mL are converted to µM
Experiment [1] has as its system Enterococcus casseliflavus ATCC 700327.
Experiment [2] has as its system Enterococcus faecalis ATCC 29212.
For experiment [3], the system named is Escherichia coli ATCC 25922.
In experiment [4] the test system is Klebsiella pneumoniae ATCC 13883.
The test system of experiment [5] is Staphylococcus aureus ATCC 25923.
The test system of experiment [6] is Staphylococcus epidermidis ATCC 12228.
Experiment [7] concerns Candida albicans CGMCC 2.2086.
The test system of experiment [8] is Candida albicans.
Experiment [9] deals with Candida krusei CGMCC 2.1857.
The subject of experiment [10] is Candida parapsilosis CGMCC 2.3989.
The subject of experiment [11] is Candida tropicalis CGMCC 2.1975.
In experiment [12] the test system is Escherichia coli 1005.
For experiment [13], the system named is Salmonella enterica subsp. enterica serovar Pullorum ATCC 7913.
The subject of experiment [14] is Salmonella enterica subsp. enterica serovar Typhimurium ATCC 14028.
For experiment [15], the system named is Staphylococcus aureus ATCC 29213.
In experiment [16] the test system is Staphylococcus aureus ATCC 43300.
The test system of experiment [17] is Bacillus subtilis.
The test system of experiment [18] is Enterococcus faecalis.
Experiment [19] concerns Escherichia coli O111:B4.
In experiment [20] the test system is Pseudomonas aeruginosa H103.
Experiment [21] has as its system Salmonella typhimurium C610.
For experiment [22], the system named is Staphylococcus aureus K147.
Experiment [23] concerns Staphylococcus aureus SAP 0017.
Experiment [24] deals with Staphylococcus epidermidis.
Experiment [25] relates to Corynebacterium xerosis.
Experiment [26] deals with Escherichia coli UB1005.
The subject of experiment [27] is Listeria monocytogenes.
In experiment [28] the test system is Pseudomonas aeruginosa K799.
Experiment [29] has as its system Salmonella enterica subsp. enterica serovar Typhimurium ATCC 14028s.
The subject of experiment [30] is Staphylococcus epidermidis C621.
For experiment [31], the system named is Streptococcus mitis.
For experiment [32], the system named is Streptococcus pneumoniae ATCC 49619.
The subject of experiment [33] is Streptococcus pyogenes ATCC 19615.

Turning to `CC[C@H](C)[C@H](NC(=O)[C@@H](N)Cc1ccccc1)C(=O)NCC(=O)N[C@H](C(=O)N[C@@H](CC(C)C)C(=O)N[C@H](C(=O)N1CCC[C@H]1C(=O)N[C@@H](CC(C)C)C(=O)N[C@@H](C)C(=O)N[C@@H](CC(C)C)C(=O)NCC(=O)N[C@@H](C)C(=O)N[C@@H](CC(C)C)C(=O)N[C@H](C(=O)N[C@@H](CCCCN)C(=O)N[C@@H](CC(C)C)C(=O)N[C@@H](Cc1ccccc1)C(=O)N[C@@H](CCCCN)C(N)=O)[C@@H](C)O)[C@@H](C)CC)[C@@H](C)O` [FIGTLIPLALGALTKLFK], the minimum inhibitory concentration (MIC) in [1] was determined as 16 µM (≈ 30.6 µg/mL); in experiment [2], 8 µM (≈ 15.3 µg/mL); in experiment [3], 16 µM (≈ 30.6 µg/mL); in experiment [4] it was 4 µM (≈ 7.66 µg/mL); in [5] it was 4 µM (≈ 7.66 µg/mL); in [6], 2 µM (≈ 3.83 µg/mL).

`CC[C@H](C)[C@H](N)C(=O)N[C@H](C(=O)N[C@@H](CCCN=C(N)N)C(=O)N[C@@H](CCCN=C(N)N)C(=O)N[C@H](C(=O)N[C@@H](CCCN=C(N)N)C(=O)N[C@@H](CCCN=C(N)N)C(=O)N[C@H](C(=O)N[C@H](C(N)=O)[C@@H](C)CC)[C@@H](C)CC)[C@@H](C)CC)[C@@H](C)CC` [IIRRIRRII]: the minimal inhibitory concentration (MIC) in experiment [7] was at least 64 µM; in experiment [8], over 64 µM; in experiment [9], 16 µM (≈ 19.3 µg/mL); in experiment [10] it was at least 64 µM; in experiment [11] it was 4 µM (≈ 4.83 µg/mL); in experiment [12] it was 16 µM (≈ 19.3 µg/mL). The MIC was 32 µM and 64 µM in experiment [3]; at least 32 µM in experiment [13]; 64 µM (≈ 77.3 µg/mL) in [14]; over 64 µM in [5]; 64 µM (≈ 77.3 µg/mL) in experiment [15]; 64 µM (≈ 77.3 µg/mL) in experiment [16]. Also, in [6], the minimum inhibitory concentration (MIC) was 64 µM (≈ 77.3 µg/mL).

With `CC[C@H](C)[C@H](NC(=O)[C@H](CC(C)C)NC(=O)[C@H](C)NC(=O)[C@@H]1CCCN1C(=O)[C@H](CC(C)C)NC(=O)CNC(=O)[C@@H](NC(=O)[C@@H](NC(=O)[C@H](CC(C)C)NC(=O)[C@@H](NC(=O)[C@@H](NC(=O)[C@H](CC(C)C)NC(=O)[C@@H](NC(=O)[C@H](C)NC(=O)CNC(=O)[C@@H](NC(=O)CNC(=O)[C@H](CCCCN)NC(=O)[C@H](CCCCN)NC(=O)[C@H](CCCCN)NC(=O)[C@H](Cc1ccccc1)NC(=O)[C@H](CC(C)C)NC(=O)[C@H](CCCCN)NC(=O)[C@H](Cc1c[nH]c2ccccc12)NC(=O)[C@@H](N)CCCCN)[C@@H](C)O)C(C)C)[C@@H](C)O)C(C)C)[C@@H](C)O)[C@@H](C)O)C(=O)N[C@@H](CO)C(=O)O` [KWKLFKKKGTGAVLTVLTTGLPALIS], the MIC was 5.77 µM (≈ 16 µg/mL) in experiment [17]; at least 46.2 µM in [18]; 2.89 µM (≈ 8 µg/mL) in experiment [19]; 5.77 µM (≈ 16 µg/mL) in [20]; 2.89 µM (≈ 8 µg/mL) in [21]; 11.5 µM (≈ 32 µg/mL) in experiment [22]. Besides, the minimum inhibitory concentration (MIC) in experiment [23] turned out to be 11.5 µM (≈ 32 µg/mL); in experiment [24], 5.77 µM (≈ 16 µg/mL).

Take `CC[C@H](C)[C@H](NC(=O)[C@H](CC(C)C)NC(=O)[C@H](C)NC(=O)[C@@H]1CCCN1C(=O)[C@H](CC(C)C)NC(=O)[C@H](C)NC(=O)[C@@H](NC(=O)[C@@H](NC(=O)[C@@H](NC(=O)[C@@H](NC(=O)[C@H](CCCCN)NC(=O)[C@H](CCCCN)NC(=O)[C@H](CC(C)C)NC(=O)[C@@H](NC(=O)[C@H](CCCCN)NC(=O)[C@@H](NC(=O)[C@H](CC(C)C)NC(=O)[C@H](CC(N)=O)NC(=O)[C@H](CCCCN)NC(=O)[C@@H](NC(=O)[C@H](Cc1ccccc1)NC(=O)[C@H](CO)NC(=O)[C@H](CCCCN)NC(=O)[C@H](Cc1c[nH]c2ccccc12)NC(=O)[C@@H](N)CCCCN)[C@@H](C)CC)[C@@H](C)O)C(C)C)C(C)C)C(C)C)[C@@H](C)O)[C@@H](C)O)C(=O)N[C@@H](CO)C(=O)O` [KWKSFIKNLTKVLKKVVTTALPALIS]: the MIC in experiment [17] is 2.73 µM (≈ 8 µg/mL); in experiment [18], 21.9 µM (≈ 64 µg/mL); in experiment [19], 2.73 µM (≈ 8 µg/mL); in experiment [20], 5.47 µM (≈ 16 µg/mL); in experiment [21], 2.73 µM (≈ 8 µg/mL); in experiment [22], 5.47 µM (≈ 16 µg/mL). In addition, the minimal inhibitory concentration (MIC) in experiment [23] was 2.73 µM (≈ 8 µg/mL); in experiment [24] it was 5.47 µM (≈ 16 µg/mL).

Turning to `CC[C@H](C)[C@H](NC(=O)[C@H](CCCN=C(N)N)NC(=O)[C@H](CS)NC(=O)[C@H](CC(C)C)NC(=O)[C@@H](N)CCCN=C(N)N)C(=O)N[C@H](C(=O)N1CCC[C@H]1C(=O)N[C@H](C(=O)N[C@H](C(=O)N[C@@H](CCCN=C(N)N)C(=O)N[C@H](C(=O)N[C@@H](CS)C(=O)N[C@@H](CCCN=C(N)N)C(=O)O)C(C)C)[C@@H](C)CC)C(C)C)C(C)C` [RLCRIVPVIRVCR], the MIC is 1.26 µM (≈ 2 µg/mL) in [25]; 20.2 µM (≈ 32 µg/mL) in [2]; 10.1 µM (≈ 16 µg/mL) in experiment [26]; 2.53 µM (≈ 4 µg/mL) in experiment [27]; 20.2 µM (≈ 32 µg/mL) in [28]; at least 40.4 µM in experiment [29]. For the same compound, the minimal inhibitory concentration (MIC) in [5] was over 40.4 µM; in experiment [30], 10.1 µM (≈ 16 µg/mL); in experiment [31] it was 1.26 µM (≈ 2 µg/mL); in experiment [32] it was at least 40.4 µM; in [33] it was 20.2 µM (≈ 32 µg/mL).

On to `CC[C@H](C)[C@H](NC(=O)[C@H](CCCN=C(N)N)NC(=O)[C@H](CO)NC(=O)[C@H](CC(C)C)NC(=O)[C@@H](N)CCCN=C(N)N)C(=O)N[C@H](C(=O)N[C@H](C(=O)N[C@H](C(=O)N[C@@H](CCCN=C(N)N)C(=O)N[C@H](C(=O)N[C@@H](CS)C(=O)N[C@@H](CCCN=C(N)N)C(N)=O)C(C)C)[C@@H](C)CC)C(C)C)C(C)C` [RLSRIVVIRVCR], for which the MIC in [25] was 0.34 µM (≈ 0.5 µg/mL); in [2], 10.9 µM (≈ 16 µg/mL); in experiment [26], 2.72 µM (≈ 4 µg/mL); in experiment [27] it was 0.34 µM (≈ 0.5 µg/mL); in [28], 10.9 µM (≈ 16 µg/mL); in experiment [29] it was at least 43.5 µM. The minimal inhibitory concentration (MIC) in [5] is 10.9 µM (≈ 16 µg/mL); in experiment [30], 1.36 µM (≈ 2 µg/mL); in experiment [31], 0.34 µM (≈ 0.5 µg/mL); in [32], 5.44 µM (≈ 7.99 µg/mL); in experiment [33], 5.44 µM (≈ 7.99 µg/mL).
